In US11180474B2 (BRISTOL-MYERS SQUIBB COMPANY, priority 2016, dated 2021):

Experiments:
human TLR8 = molecular target: T1, human TLR8 (Homo sapiens, UniProt Q9NR97); assay: TLR8 inhibition reporter assay (HEK-Blue cells, SEAP reporter, R848 stimulation); assay type: cell-based; conditions: HEK-Blue cells overexpressing human TLR8, R848 15.9 μM
T1 construct: host or cells: HEK-Blue cells
T1 sequence (Q9NR97 27-1041): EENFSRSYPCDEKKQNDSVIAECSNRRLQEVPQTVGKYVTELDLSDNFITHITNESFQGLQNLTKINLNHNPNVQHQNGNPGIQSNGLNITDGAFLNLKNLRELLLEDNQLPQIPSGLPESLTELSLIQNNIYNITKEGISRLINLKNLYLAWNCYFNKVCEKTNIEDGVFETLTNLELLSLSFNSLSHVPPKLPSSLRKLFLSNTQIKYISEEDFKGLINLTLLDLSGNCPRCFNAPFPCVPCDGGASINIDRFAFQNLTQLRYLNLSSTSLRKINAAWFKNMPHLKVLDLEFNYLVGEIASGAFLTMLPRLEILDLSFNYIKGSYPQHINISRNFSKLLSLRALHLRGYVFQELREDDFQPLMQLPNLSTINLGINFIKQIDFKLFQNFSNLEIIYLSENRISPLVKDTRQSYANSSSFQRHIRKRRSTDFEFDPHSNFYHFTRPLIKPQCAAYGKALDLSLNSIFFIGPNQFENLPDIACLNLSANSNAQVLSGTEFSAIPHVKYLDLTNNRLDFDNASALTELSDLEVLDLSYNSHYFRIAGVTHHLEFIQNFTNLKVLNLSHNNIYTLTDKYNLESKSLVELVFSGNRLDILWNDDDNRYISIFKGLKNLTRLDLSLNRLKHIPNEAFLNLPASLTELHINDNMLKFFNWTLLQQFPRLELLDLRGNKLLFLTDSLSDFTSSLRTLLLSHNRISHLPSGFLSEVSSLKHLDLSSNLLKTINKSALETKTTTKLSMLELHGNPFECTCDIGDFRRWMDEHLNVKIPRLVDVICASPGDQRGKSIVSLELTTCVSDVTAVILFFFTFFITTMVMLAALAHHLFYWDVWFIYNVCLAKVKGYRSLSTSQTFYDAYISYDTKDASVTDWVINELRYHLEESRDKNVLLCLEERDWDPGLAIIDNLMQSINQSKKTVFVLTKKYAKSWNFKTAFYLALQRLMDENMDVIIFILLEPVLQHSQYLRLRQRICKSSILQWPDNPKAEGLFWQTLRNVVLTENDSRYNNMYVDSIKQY
Summary of the method: (§1)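 HEK-Blue reporter cells (15,000/well TLR7, 20,000 TLR8) exposed to compound over 0.05 nM–50 μM, agonist-stimulated (R848 for TLR8, gardiquimod for TLR7), 22 h at 37 °C, 5% CO2. SEAP read with HEK-Blue Detection; % inhibition relative to agonist-plus-DMSO and known-inhibitor controls.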

human TLR7 = molecular target: T2, human TLR7 (Homo sapiens, UniProt Q9NYK1); assay: TLR7 inhibition reporter assay (HEK-Blue cells, SEAP reporter, gardiquimod stimulation); assay type: cell-based; conditions: HEK-Blue cells overexpressing human TLR7, gardiquimod 7.5 μM
T2 construct: host or cells: HEK-Blue cells
T2 sequence (Q9NYK1 27-1049): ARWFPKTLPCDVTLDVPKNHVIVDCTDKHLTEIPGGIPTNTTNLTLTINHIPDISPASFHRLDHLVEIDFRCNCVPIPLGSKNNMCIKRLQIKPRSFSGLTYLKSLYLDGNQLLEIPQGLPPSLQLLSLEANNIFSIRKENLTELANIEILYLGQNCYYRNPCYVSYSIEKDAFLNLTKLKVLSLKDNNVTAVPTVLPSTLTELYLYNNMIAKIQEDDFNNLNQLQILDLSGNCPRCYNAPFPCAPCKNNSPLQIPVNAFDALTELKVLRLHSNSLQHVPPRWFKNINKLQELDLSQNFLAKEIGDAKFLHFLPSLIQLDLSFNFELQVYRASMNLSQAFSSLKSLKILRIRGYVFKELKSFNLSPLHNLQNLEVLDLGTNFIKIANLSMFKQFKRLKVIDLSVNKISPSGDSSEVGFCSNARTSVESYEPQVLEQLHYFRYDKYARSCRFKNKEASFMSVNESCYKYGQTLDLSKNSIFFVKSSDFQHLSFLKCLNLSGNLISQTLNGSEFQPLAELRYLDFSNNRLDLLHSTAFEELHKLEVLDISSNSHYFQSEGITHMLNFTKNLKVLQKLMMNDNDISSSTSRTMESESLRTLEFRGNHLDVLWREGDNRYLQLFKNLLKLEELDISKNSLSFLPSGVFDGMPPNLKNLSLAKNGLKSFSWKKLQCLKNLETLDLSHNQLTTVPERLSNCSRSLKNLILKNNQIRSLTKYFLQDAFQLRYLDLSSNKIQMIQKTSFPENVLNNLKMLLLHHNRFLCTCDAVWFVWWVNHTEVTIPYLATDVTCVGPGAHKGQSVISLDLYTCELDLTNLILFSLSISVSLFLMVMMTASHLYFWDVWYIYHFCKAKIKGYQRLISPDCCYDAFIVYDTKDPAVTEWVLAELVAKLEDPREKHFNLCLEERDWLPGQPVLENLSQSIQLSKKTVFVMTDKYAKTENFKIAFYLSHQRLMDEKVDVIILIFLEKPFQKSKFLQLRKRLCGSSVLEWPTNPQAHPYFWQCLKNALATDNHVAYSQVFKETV
Summary of the method: as §1

| SMILES | IC50 (human TLR8) | IC50 (human TLR7) |
| --- | --- | --- |
| COc1ccc(-c2[nH]c3ccc(C4CCN(C(=O)CCN5CCCCC5)CC4)cc3c2CC(F)(F)F)cc1OC [Example 330, 1-(4-(2-(3,4-dimethoxyphenyl)-3-(2,2,2-trifluoroethyl)-1H-indol-5-yl)piperidin-1-yl)-3-(piperidin-1-yl)propan-1-one] | 84 nM | 57 nM |
| COc1ccc(-c2[nH]c3ccc(C4CCN(C(=O)Cc5cnccn5)CC4)cc3c2CC(F)(F)F)cc1OC [Example 342, 1-(4-(2-(3,4-dimethoxyphenyl)-3-(2,2,2-trifluoroethyl)-1H-indol-5-yl)piperidin-1-yl)-2-(pyrazin-2-yl)ethan-1-one] | 591 nM | 240 nM |
| COc1ccc(-c2[nH]c3ccc(C4CCN(C(=O)Cc5c[nH]cn5)CC4)cc3c2CC(F)(F)F)cc1OC [Example 334, 1-(4-(2-(3,4-dimethoxyphenyl)-3-(2,2,2-trifluoroethyl)-1H-indol-5-yl)piperidin-1-yl)-2-(1H-imidazol-4-yl)ethan-1-one] | 412 nM | 130 nM |
| COc1ccc(-c2[nH]c3ccc(C4CCN(C(=O)C5CCN(C(C)=O)CC5)CC4)cc3c2CC(F)(F)F)cc1OC [Example 345, 1-(4-(4-(2-(3,4-dimethoxyphenyl)-3-(2,2,2-trifluoroethyl)-1H-indol-5-yl)piperidine-1-carbonyl)piperidin-1-yl)ethan-1-one] | 1030 nM | 256 nM |
| COc1ccc(-c2[nH]c3ccc(C4CCN(C(=O)CNC[C@@H](O)CO)CC4)cc3c2C)cc1OC [Example 405, (R)-2-((2,3-dihydroxypropyl)amino)-1-(4-(2-(3,4-dimethoxyphenyl)-3-methyl-1H-indol-5-yl)piperidin-1-yl)ethan-1-one] | 29200 nM | 18300 nM |
| COc1ccc(-c2[nH]c3ccc(C4CCNCC4)cc3c2CC(F)(F)F)cc1OC [Example 329, 2-(3,4-dimethoxyphenyl)-5-(piperidin-4-yl)-3-(2,2,2-trifluoroethyl)-1H-indole] | 19 nM | 15 nM |

Continued, values first:

| IC50 (human TLR8) | IC50 (human TLR7) | SMILES |
| --- | --- | --- |
| 765 nM | 458 nM | COc1ccc(-c2[nH]c3ccc(C4CCN(C(=O)C[C@H](C)O)CC4)cc3c2CC(F)(F)F)cc1OC [Example 352, (S)-1-(4-(2-(3,4-dimethoxyphenyl)-3-(2,2,2-trifluoroethyl)-1H-indol-5-yl)piperidin-1-yl)-3-hydroxybutan-1-one] |
| 39 nM | 94 nM | COc1ccc(-c2[nH]c3ccc(C4CCN(CC(=O)NCCNC(C)=O)CC4)cc3c2CC(F)(F)F)cc1OC [Example 379, N-(2-acetamidoethyl)-2-(4-(2-(3,4-dimethoxyphenyl)-3-(2,2,2-trifluoroethyl)-1H-indol-5-yl)piperidin-1-yl)acetamide] |
| 964 nM | 229 nM | COc1ccc(-c2[nH]c3ccc(C4CCN(C(=O)C[C@@H](C)O)CC4)cc3c2CC(F)(F)F)cc1OC [Example 353, (R)-1-(4-(2-(3,4-dimethoxyphenyl)-3-(2,2,2-trifluoroethyl)-1H-indol-5-yl)piperidin-1-yl)-3-hydroxybutan-1-one] |
| 35 nM | 9 nM | COc1ccc(-c2[nH]c3ccc(C4CCN(CC(=O)N5CC[C@H](N(C)C)C5)CC4)cc3c2CC(F)(F)F)cc1OC [Example 374, (S)-2-(4-(2-(3,4-dimethoxyphenyl)-3-(2,2,2-trifluoroethyl)-1H-indol-5-yl)piperidin-1-yl)-1-(3-(dimethylamino)pyrrolidin-1-yl) ethan-1-one] |
| 451 nM | 622 nM | CCC(CC)NC(=O)CN1CCC(c2ccc3[nH]c(-c4ccc(OC)c(OC)c4)c(CC(F)(F)F)c3c2)CC1 [Example 378, 2-(4-(2-(3,4-dimethoxyphenyl)-3-(2,2,2-trifluoroethyl)-1H-indol-5-yl)piperidin-1-yl)-N-(pentan-3-yl)acetamide] |
| 128 nM | 132 nM | CNC(=O)CN1CCC(c2ccc3[nH]c(-c4ccc(OC)c(OC)c4)c(CC(F)F)c3c2)CC1 [Example 401, 2-(4-(3-(2,2-difluoroethyl)-2-(3,4-dimethoxyphenyl)-1H-indol-5-yl)piperidin-1-yl)-N-methylacetamide] |
